22 molecules from patent US20060276464A1, “Diarylsulfone sulfonamides and use thereof” (Wyeth, priority 2005, published 2006) can be followed below.

In data set [1] the target is T1, SFRP-1 (Homo sapiens, UniProt Q8N474).
T1 sequence (Q8N474 32-314): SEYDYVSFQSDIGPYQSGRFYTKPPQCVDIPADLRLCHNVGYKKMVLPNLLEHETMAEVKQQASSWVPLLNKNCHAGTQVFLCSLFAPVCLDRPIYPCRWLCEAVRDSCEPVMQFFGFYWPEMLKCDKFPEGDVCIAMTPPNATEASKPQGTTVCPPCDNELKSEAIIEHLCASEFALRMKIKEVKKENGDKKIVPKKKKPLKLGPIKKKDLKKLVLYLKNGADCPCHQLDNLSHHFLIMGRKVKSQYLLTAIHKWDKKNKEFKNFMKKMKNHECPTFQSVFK
Kind of data set: Cell-based assay for in vitro measurement of SFRP-1/SARP2 antagonist activity (U2OS cells co-transfected with 16x TCF-tk-Luciferase reporter, Wnt and hSFRP-1).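 On all read-outs here: U2OS cells co-transfected with a TCF-tk luciferase reporter, a Wnt vector, hSFRP-1 or empty vector and CMV-βgal, luciferase luminescence read in cell lysates alongside βgal activity.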 Conditions: for fold induction at 15 µM: U2OS. (In general: Reporter assays use an easily measured gene product as a stand-in for the process of interest.)

Data set [2] deals with T1, SFRP-1. Briefly: Fluorescence polarization binding assay (competitive displacement of a probe compound from SFRP-1).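 Further: test compound competes with a fluorescent probe held by SFRP-1, seen as a drop in probe anisotropy after incubation in darkness, with anisotropy as function of rising compound dose.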 Conditions: fluorescence anisotropy, 45 nM SFRP-1, 20 nM probe. For orientation: Polarisation of emitted light reports the rotation of a fluorescent probe.
Setting [3] is: read-out: Fold Induction with SFRP-1, Conc 15 μM, single dose, luciferase reporter, fold induction over SFRP-1 control, cells with SFRP-1.
[4] abbreviates: read-out: Fold Induction without SFRP-1, Conc 15 μM, single dose, luciferase reporter, cells without SFRP-1 (specificity control).

What is called EC50 is the concentration needed to bring the measured effect to its halfway point. Read a low EC50 as higher potency in that assay. The term IC50 denotes the concentration at which inhibition is half-maximal. One may read the melting point as the temperature, or range, at which the solid turns liquid.

Several values for one entry are separate records, joined by “and”; a condition that tells them apart may be missing. Identical values can stand only once. Like-named read-outs stand apart in the source and are kept apart here.

In the case of `CN1[C@@H]2CC[C@H]1CC(NS(=O)(=O)c1cc(S(=O)(=O)c3ccccc3)ccc1C(F)(F)F)C2` (relative stereo) [Example 1035, N-[(1R*, 5S*)-8-Methyl-8-azabicyclo[3.2.1]oct-3-yl]-5-(phenylsulphonyl)-2-(trifluoromethyl)benzenesulfonamide], the melting point was 154 to 157 °C. The same molecule displayed an EC50 on SFRP-1 [1] of 1.35 µM. Moreover, the IC50 at SFRP-1 [2] is 0.3 µM.

In turn, `Cc1ccc(S(=O)(=O)c2cc3c(c(S(=O)(=O)NCCc4ccccc4F)c2)CCCC3)cc1` [Example 441, N-[2-(2-Fluorophenyl)ethyl]-3-[(4-methylphenyl)sulfonyl]-5,6,7,8-tetrahydronaphthalene-1-sulfonamide] came in with a melting point of 55 to 60 °C. For the same molecule, on SFRP-1 [1] (read-out: Fold Induction with SFRP-1, Conc 15 μM, with SFRP-1, fold induction over SFRP-1 control, single dose), the fold induction at 15 µM was determined as 1.8. In addition, the fold induction at 15 µM at SFRP-1 [1] (read-out: Fold Induction without SFRP-1, Conc 15 μM, without SFRP-1, single dose) came out at 1.1. The IC50 on SFRP-1 [2] was determined as 6 µM.

`CCCc1ccc(S(=O)(=O)c2ccccc2)cc1S(=O)(=O)NC1CCOCC1` [Example 551, 5-(Phenylsulfonyl)-2-propyl-N-(tetrahydro-2H-pyran-4-yl)benzenesulfonamide]: the melting point lay in the range of 131 to 133 °C. On SFRP-1 [1] (setting [3]), the fold induction at 15 µM is 3.1. Moreover, the fold induction at 15 µM at SFRP-1 [1] (setting [4]) amounted to 1.1. On SFRP-1 [2], this molecule yielded an IC50 of 1 µM.

Take `CCCc1ccc(S(=O)(=O)c2ccccc2)cc1S(=O)(=O)NCCc1ccccn1` [Example 555, 5-(Phenylsulfonyl)-2-propyl-N-(2-pyridin-2-ylethyl)benzenesulfonamide]: the melting point was in the range of 100 to 102 °C. The fold induction at 15 µM on SFRP-1 [1] (setting [3]) stood at 3.1. Besides, on SFRP-1 [1] (setting [4]), the fold induction at 15 µM was determined as 1.2. Also, the IC50 at SFRP-1 [2] was 0.7 µM and 1.1 µM.

For `CCCc1ccc(S(=O)(=O)c2ccccc2)cc1S(=O)(=O)NCCCn1ccnc1` [Example 556, N-[3-(1H-Imidazol-1-yl)propyl]-5-(phenylsulfonyl)-2-propylbenzenesulfonamide], the melting point lay within 143 to 146 °C. Further, the fold induction at 15 µM at SFRP-1 [1] (setting [3]) was determined as 4. The fold induction at 15 µM on SFRP-1 [1] (setting [4]) was found to be 1.2. At SFRP-1 [2], this molecule came in with an IC50 of 0.3 µM.

As for `CCCc1ccc(S(=O)(=O)c2ccccc2)cc1S(=O)(=O)NC1CCN(C(=O)OC(C)(C)C)CC1` [Example 558, tert-Butyl 4-({[5-(phenylsulfonyl)-2-propylphenyl]sulfonyl}amino)piperidine-1-carboxylate], the melting point lay within 128 to 130 °C. Moreover, the fold induction at 15 µM on SFRP-1 [1] (setting [3]) is 1.8. In addition, the fold induction at 15 µM at SFRP-1 [1] (setting [4]) stood at 1.1. On SFRP-1 [2], this molecule gave a half-maximal inhibitory concentration (IC50) of 0.7 µM.

As for `CCCc1ccc(S(=O)(=O)c2ccc(F)cc2)cc1S(=O)(=O)NC1CCOCC1` [Example 560, 5-[(4-Fluorophenyl)sulfonyl]-2-propyl-N-(tetrahydro-2H-pyran-4-yl)benzenesulfonamide], the melting point is 131 to 133 °C. Further, at SFRP-1 [1] (setting [3]), the fold induction at 15 µM worked out at 1.6. Moreover, the fold induction at 15 µM on SFRP-1 [1] (setting [4]) came to 0.9. Moreover, the 50% inhibitory concentration (IC50) at SFRP-1 [2] was 1.7 µM and 2.7 µM.

Consider `CCCc1ccc(S(=O)(=O)c2ccc(F)cc2)cc1S(=O)(=O)NCCc1ccccn1` [Example 564, 5-[(4-Fluorophenyl)sulfonyl]-2-propyl-N-(2-pyridin-2-ylethyl)benzenesulfonamide], for which the melting point is 113 to 115 °C. In addition, the fold induction at 15 µM on SFRP-1 [1] (setting [3]) was 3.3. Further, on SFRP-1 [1] (setting [4]), the fold induction at 15 µM turned out to be 1.3. Also, the IC50 at SFRP-1 [2] was 1.4 µM and 1.6 µM.

Molecule `CCCc1ccc(S(=O)(=O)c2ccc(F)cc2)cc1S(=O)(=O)NC1CCN(C(=O)OC(C)(C)C)CC1` [Example 567, tert-Butyl 4-[({5-[(4-fluorophenyl)sulfonyl]-2-propylphenyl}sulfonyl)amino]piperidine-1-carboxylate] registered a melting point of 151 to 153 °C. Besides, the fold induction at 15 µM at SFRP-1 [1] (setting [3]) worked out at 2.2. The fold induction at 15 µM at SFRP-1 [1] (setting [4]) worked out at 1.3. Further, the IC50 at SFRP-1 [2] was 1.6 µM.

`O=S(=O)(NCCc1ccccc1)c1cc(S(=O)(=O)c2ccccc2)ccc1C(F)(F)F` [Example 570, N-(2-Phenylethyl)-5-(phenylsulfonyl)-2-(trifluoromethyl)-benzenesulfonamide] yielded a melting point of 151 to 153 °C. Moreover, the fold induction at 15 µM on SFRP-1 [1] (setting [3]) was determined as 2.4. In addition, the fold induction at 15 µM at SFRP-1 [1] (setting [4]) amounted to 1.2. At SFRP-1 [2], the IC50 came to 0.16 µM.

With `O=S(=O)(NCCc1ccccn1)c1cc(S(=O)(=O)c2ccccc2)ccc1C(F)(F)F` [Example 571, 5-(Phenylsulfonyl)-N-(2-pyridin-2-ylethyl)-2-(trifluoromethyl)benzenesulfonamide], the melting point fell in the range of 149 to 151 °C. For the same molecule, at SFRP-1 [1] (setting [3]), the fold induction at 15 µM came to 3.1. Besides, the fold induction at 15 µM on SFRP-1 [1] (setting [4]) amounted to 1.2. The IC50 at SFRP-1 [2] is 0.13 µM and 0.3 µM.

Molecule `O=S(=O)(NC1CCOCC1)c1cc(S(=O)(=O)c2ccccc2)ccc1C(F)(F)F` [Example 608, 5-(phenylsulfonyl)-N-(tetrahydro-2H-pyran-4-yl)-2-(trifluoromethyl)benzenesulfonamide] gave a melting point of 155 to 158 °C. For the same molecule, the fold induction at 15 µM on SFRP-1 [1] (setting [3]) stood at 3.8. Further, on SFRP-1 [1] (setting [4]), the fold induction at 15 µM stood at 1.1. Besides, on SFRP-1 [2], the IC50 is 0.3 µM and 0.5 µM.

`CC(C)c1cc(C(C)C)c(S(=O)(=O)c2ccccc2)cc1S(=O)(=O)NCCc1ccccc1` [Example 609, 2,4-Diisopropyl-N-(2-phenylethyl)-5-(phenylsulfonyl)benzenesulfonamide] yielded a melting point of 156 to 158 °C. For the same molecule, the fold induction at 15 µM at SFRP-1 [1] (setting [3]) turned out to be 1.4. In addition, the fold induction at 15 µM at SFRP-1 [1] (setting [4]) stood at 1.1. For the same molecule, on SFRP-1 [2], the IC50 is 2.1 µM.

As for `CC(C)c1cc(C(C)C)c(S(=O)(=O)c2ccccc2)cc1S(=O)(=O)NC1CCOCC1` [Example 610, 2,4-Diisopropyl-5-(phenylsulfonyl)-N-(tetrahydro-2H-pyran-4-yl)benzenesulfonamide], the melting point lay in the range of 159 to 160 °C. Further, the fold induction at 15 µM at SFRP-1 [1] (setting [3]) was determined as 2.5. Moreover, the fold induction at 15 µM at SFRP-1 [1] (setting [4]) came out at 1.1. This molecule yielded an IC50 on SFRP-1 [2] of 0.9 µM.

`CC(C)c1cc(C(C)C)c(S(=O)(=O)c2ccccc2)cc1S(=O)(=O)NCC1CCOCC1` [Example 611, 2,4-Diisopropyl-5-(phenylsulfonyl)-N-(tetrahydro-2H-pyran-4-ylmethyl)benzenesulfonamide] yielded a melting point of 148 to 150 °C. Further, on SFRP-1 [1] (setting [3]), the fold induction at 15 µM was found to be 2.6. Moreover, the fold induction at 15 µM on SFRP-1 [1] (setting [4]) turned out to be 1.1. Moreover, the IC50 on SFRP-1 [2] is 1.3 µM.

As to `CC(C)c1cc(C(C)C)c(S(=O)(=O)c2ccccc2)cc1S(=O)(=O)NCCC1CCOCC1` [Example 612, 2,4-Diisopropyl-5-(phenylsulfonyl)-N-[2-(tetrahydro-2H-pyran-4-yl)ethyl]benzenesulfonamide], the melting point is 90 to 92 °C. Further, the fold induction at 15 µM on SFRP-1 [1] (setting [3]) is 2. Further, at SFRP-1 [1] (setting [4]), the fold induction at 15 µM came to 1.1. At SFRP-1 [2], this molecule came in with an IC50 of 1.6 µM.

In turn, `CC(C)c1cc(C(C)C)c(S(=O)(=O)c2ccccc2)cc1S(=O)(=O)NC1CCCC1` [Example 613, N-Cyclopentyl-2,4-diisopropyl-5-(phenylsulfonyl)benzenesulfonamide] returned a melting point of 179 to 181 °C. The fold induction at 15 µM at SFRP-1 [1] (setting [3]) was determined as 1.3. Moreover, at SFRP-1 [1] (setting [4]), the fold induction at 15 µM worked out at 1. Further, the IC50 on SFRP-1 [2] was 2.5 µM and 3 µM.

Turning to `CC(C)c1cc(C(C)C)c(S(=O)(=O)c2ccccc2)cc1S(=O)(=O)NCCc1ccccn1` [Example 614, 2,4-Diisopropyl-5-(phenylsulfonyl)-N-(2-pyridin-2-ylethyl)benzenesulfonamide], the melting point lay within 189 to 191 °C. The fold induction at 15 µM on SFRP-1 [1] (setting [3]) is 1.8. In addition, the fold induction at 15 µM at SFRP-1 [1] (setting [4]) is 1. The same molecule had an IC50 on SFRP-1 [2] of 1.3 µM.

Molecule `CC(C)c1cc(C(C)C)c(S(=O)(=O)c2ccccc2)cc1S(=O)(=O)NCCCn1ccnc1` [Example 615, N-[3-(1H-Imidazol-1-yl)propyl]-2,4-diisopropyl-5-(phenylsulfonyl)benzenesulfonamide] gave a melting point of 203 to 205 °C. The fold induction at 15 µM at SFRP-1 [1] (setting [3]) was determined as 1.7. Moreover, the fold induction at 15 µM at SFRP-1 [1] (setting [4]) is 1. In addition, the IC50 on SFRP-1 [2] came to 1.2 µM.

Molecule `CC(C)c1cc(C(C)C)c(S(=O)(=O)c2ccccc2)cc1S(=O)(=O)NCCc1cccnc1` [Example 616, 2,4-Diisopropyl-5-(phenylsulfonyl)-N-(2-pyridin-3-ylethyl)benzenesulfonamide] registered a melting point of 163 to 165 °C. Besides, the fold induction at 15 µM on SFRP-1 [1] (setting [3]) was determined as 2.7. Also, the fold induction at 15 µM on SFRP-1 [1] (setting [4]) stood at 1. This molecule came in with an IC50 on SFRP-1 [2] of 0.8 µM.

`CC(C)c1cc(C(C)C)c(S(=O)(=O)c2ccccc2)cc1S(=O)(=O)NCCc1ccncc1` [Example 617, 2,4-Diisopropyl-5-(phenylsulfonyl)-N-(2-pyridin-4-ylethyl)benzenesulfonamide] returned a melting point of 178 to 180 °C. Moreover, on SFRP-1 [1] (setting [3]), the fold induction at 15 µM amounted to 2. Besides, the fold induction at 15 µM on SFRP-1 [1] (setting [4]) was 1.2. Moreover, the IC50 on SFRP-1 [2] is 1 µM.

`CC(C)c1cc(C(C)C)c(S(=O)(=O)c2ccc(F)cc2)cc1S(=O)(=O)NC1CCOCC1` [Example 620, 5-[(4-Fluorophenyl)sulfonyl]-2,4-diisopropyl-N-(tetrahydro-2H-pyran-4-yl)benzenesulfonamide] returned a melting point of 183 to 186 °C. Further, the fold induction at 15 µM at SFRP-1 [1] (setting [3]) amounted to 2.7. Moreover, at SFRP-1 [1] (setting [4]), the fold induction at 15 µM was 1. Also, the IC50 at SFRP-1 [2] stood at 1 µM.
